System: paclitaxel-induced peripheral nerve disorder rats
Test: Oral administration (suspension or α-CD inclusion complex), hyperalgesia by paclitaxel (von Frey test)
Format: in vivo, rat
Details: for 50% reaction threshold value, after 5 hours from administration / AUC of 50% reaction threshold value over time, measured value: single dose; for 50% reaction threshold value, before administration: baseline
Method: A suspension ([…]) 5 mL of the compound 4 was mixed with a 1% α-CD aqueous solution followed by stirring overnight to prepare an α-CD inclusion complex of the compound 4.
With regard to male SD rats of six weeks age used as the experimental animals, the rats were organized into the following six groups each comprising 6 rats. • Oral administration group with 0.3 mg/kg of the test drug suspension • Oral administration group with 3 mg/kg of the test drug suspension • Oral administration group with an α-CD inclusion complex containing 0.3 mg/kg of the test drug • Oral administration group with an α-CD inclusion complex containing 3 mg/kg of the test drug • α-CD oral administration group • Intraperitoneal administration group with 0.3 mg/kg of the test drug
Paclitaxel-induced peripheral nerve disorder rats were prepared in the same manner as in the above 1.[1](2). The compound 4 was used as a test drug and, after 39 days from the initiation of the administration of paclitaxel, it was orally administered in a single dose where the dose calculated as a test drug became 0.3 mg/kg or 3 mg/kg to oral administration groups with the test drug suspension or to oral administration groups with an α-CD inclusion complex containing the test drug while, to an intraperitoneal administration group with the test drug, it was intraperitoneally administered in a single dose of 0.3 mg/kg. Further, to an α-CD Oral administration group, an α-CD solution was orally administered in a single dose of 15 mg/kg.
A von Frey test was conducted in the same manner as in the above 1.[1](4) using the rats mentioned in the above (2) and 50% reaction threshold values in each group were measured before initiating the administration of a test drug and after 1, 5 and 24 hours. Further, AUC (area of the part surrounded by a curve and an abscissa axis (a time axis) in a graph showing the 50% reaction threshold value over time from administration of the test drug) was calculated and the relative ratio of each group was calculated where the AUC of the intraperitoneal administration group with 0.3 mg/kg of the test drug was adopted as 100.

[1] = oral 0.3 mg/kg, test drug suspension
[2] = oral 3 mg/kg, test drug suspension

## CCCCCCC/C=C/C(=O)OCC [Compound 4, Trans-2-decenoic acid ethyl ester]
Intraperitoneal 0.3 mg/kg
  50% reaction threshold value, after 5 hours from administration: 8.57
  AUC of 50% reaction threshold value over time, measured value: 74.59
  50% reaction threshold value, before administration: 4.58
Intraperitoneal 0.3 mg/kg, this group adopted as 100
  AUC relative ratio: 100
[1]
  50% reaction threshold value, after 5 hours from administration: 6.00
  AUC of 50% reaction threshold value over time, measured value: 31.83
  50% reaction threshold value, before administration: 4.57
Oral 0.3 mg/kg, test drug suspension, AUC of i.p. 0.3 mg/kg group = 100
  AUC relative ratio: 43
[2]
  50% reaction threshold value, after 5 hours from administration: 8.66
  AUC of 50% reaction threshold value over time, measured value: 54.99
  50% reaction threshold value, before administration: 4.57
Oral 3 mg/kg, test drug suspension, AUC of i.p. 0.3 mg/kg group = 100
  AUC relative ratio: 74

From patent US20130296425A1, “PROPHYLACTIC OR THERAPEUTIC AGENT FOR A PERIPHERAL NERVE DISORDER INDUCED BY ANTI-CANCER AGENTS” (NAGOYA INDUSTRIAL SCIENCE RESEARCH INSTITUTE, priority 2011, published 2013)
